Like-named read-outs stand apart in the source and are kept apart here.
Assays:
WNV [1] = assay: Virucidal assay, WNV preincubated with compound then titrated by plaque assay; details: 5 µg/mL, 1 h at 37°C
WNV [2] = assay: Time of addition assay, WNV-infected Vero cells; format: cell-based, West Nile virus; details: 5 µg/mL, MOI 1 PFU/cell, 24 h
rat ACC1 = rat ACC1 (Rattus norvegicus, UniProt P11497); assay: Radiometric ACC inhibition assay, rat ACC1; format: biochemical
Experimental: (§1) (-)-Epicgallocathechin gallate, EGCG (catalog no. 0981 S) was from Extrasynthese (Genay, France). […] Apparent permeability was assessed in low-efflux MDCKII cells. In vitro potencies of the inhibitors were determined using a radiometric assay. For tissue culture experiments, drugs were suspended in DMSO. Control cells were treated in parallel with the same amount of DMSO (vehicle). Cell viability was estimated in uninfected cells by ATP measurement using Cell Titer Glo luminescent cell viability assay (catalog no. G7579; Promega, Madison, WI). […] Cells were lysed by adding equal amounts of Cell Titer Glo reagent (100 µL/well) and gentle rocking (2 min) in an orbital shaker. The amount of ATP in each sample was determined by luminescence measurement using white microplates and a TECAN Genius (Zurich, Switzerland) microplate reader.

[3] = Cell viability by ATP measurement (Cell Titer Glo) in uninfected Vero cells; details: African green monkey
Experimental: as §1

[4] = Mouse pharmacokinetics after a single oral dose; format: in vivo; details: fasted male mice, mean ± SD, n = 3; for Cmax: male, read-out: Cmax, maximum plasma-concentration; for Cmax / AUC / Tmax: mouse, in vivo, po; for AUC: 0.5% methyl cellulose suspension, read-out: AUC(Exp), area under the plasma-concentration-time curve; for Tmax: read-out: Tmax, time to reach the maximum plasma-concentration
Experimental: (§2) Pharmacokinetics was analyzed after a single oral (p.o.) dose of the compounds (in a 0.5% methyl cellulose suspension) administered to fasted male mice. […] Antiviral activity in vivo was determined using eight-week-old Swiss albino CD-1 female mice (Envigo, Huntingdon, UK). […] Control mice were treated in parallel with drug vehicle (carboxymethylcellulose). For experiments evaluating the effect of genetic deletion of ACC2 gene on WNV infection, a breeding colony of C57BL/6 ACC2^-/- mice was established from two heterozygous Acab^tm1Dejs females. Age- and sex-matched eight-week-old ACC2^-/- and control wild type (WT) mice were challenged with WNV (1 × 10^4 PFU/animal, i.p.). Animals were monitored daily and received water and food ad libitum.

DENV = DENV multiplication in Vero cells, virus yield by plaque assay; details: for EC50: Dengue virus, Vero, 48 h, read-out: EC50 DENV; for SI (CC50/EC50) DENV: calculated at 48 h
human ACC1 = human ACC1 (Homo sapiens, UniProt Q13085); assay: Radiometric ACC inhibition assay, human ACC1; format: biochemical
Experimental: as §1

ZIKV = ZIKV multiplication in Vero cells, virus yield by plaque assay; details: for EC50: Zika virus, Vero, 24 h, read-out: EC50 ZIKV; for SI (CC50/EC50) ZIKV: calculated at 24 h
[5] = Apparent permeability in low-efflux MDCKII cells; details: dog, MDCK
Experimental: as §1

WNV [6] = assay: WNV multiplication in Vero cells, virus yield by plaque assay; details: for EC50: West Nile virus, Vero, 24 h, read-out: EC50 WNV; for SI (CC50/EC50) WNV: calculated at 24 h
WNV [7] = assay: Antiviral activity against WNV in mice, viral burden by quantitative RT-PCR; format: in vivo; details: CD-1 female mice, 20 mg/kg p.o. twice a day
Experimental: as §2
RNA was automatically extracted using a QIAcube equipment (QIAGEN GmbH, Hilden, Germany) and QIAamp viral RNA Mini Kit (QIAGEN, catalog no. 52906) for sera or RNeasy Mini Kit (QIAGEN, catalog no. 74106) for tissue homogenates. The content of viral RNA in each sample was analyzed by real-time fluorogenic reverse transcriptase PCR by comparison with previously titrated samples and determined as PFU equivalents/mL [22].

human ACC2 = human ACC2 (Homo sapiens, UniProt O00763); assay: Radiometric ACC inhibition assay, human ACC2; format: biochemical
Experimental: as §1

rat ACC2 = rat ACC2 (Rattus norvegicus, UniProt Q1HEC0); assay: Radiometric ACC inhibition assay, rat ACC2; format: biochemical
Experimental: as §1

[8] = WNV i.p., 7 days post-infection
[9] = single p.o. dose 100 mg/kg, 100 mg/kg
[10] = 100 mg/kg, single p.o. dose 100 mg/kg

rat ACC2, sequence (Q1HEC0 17-2455): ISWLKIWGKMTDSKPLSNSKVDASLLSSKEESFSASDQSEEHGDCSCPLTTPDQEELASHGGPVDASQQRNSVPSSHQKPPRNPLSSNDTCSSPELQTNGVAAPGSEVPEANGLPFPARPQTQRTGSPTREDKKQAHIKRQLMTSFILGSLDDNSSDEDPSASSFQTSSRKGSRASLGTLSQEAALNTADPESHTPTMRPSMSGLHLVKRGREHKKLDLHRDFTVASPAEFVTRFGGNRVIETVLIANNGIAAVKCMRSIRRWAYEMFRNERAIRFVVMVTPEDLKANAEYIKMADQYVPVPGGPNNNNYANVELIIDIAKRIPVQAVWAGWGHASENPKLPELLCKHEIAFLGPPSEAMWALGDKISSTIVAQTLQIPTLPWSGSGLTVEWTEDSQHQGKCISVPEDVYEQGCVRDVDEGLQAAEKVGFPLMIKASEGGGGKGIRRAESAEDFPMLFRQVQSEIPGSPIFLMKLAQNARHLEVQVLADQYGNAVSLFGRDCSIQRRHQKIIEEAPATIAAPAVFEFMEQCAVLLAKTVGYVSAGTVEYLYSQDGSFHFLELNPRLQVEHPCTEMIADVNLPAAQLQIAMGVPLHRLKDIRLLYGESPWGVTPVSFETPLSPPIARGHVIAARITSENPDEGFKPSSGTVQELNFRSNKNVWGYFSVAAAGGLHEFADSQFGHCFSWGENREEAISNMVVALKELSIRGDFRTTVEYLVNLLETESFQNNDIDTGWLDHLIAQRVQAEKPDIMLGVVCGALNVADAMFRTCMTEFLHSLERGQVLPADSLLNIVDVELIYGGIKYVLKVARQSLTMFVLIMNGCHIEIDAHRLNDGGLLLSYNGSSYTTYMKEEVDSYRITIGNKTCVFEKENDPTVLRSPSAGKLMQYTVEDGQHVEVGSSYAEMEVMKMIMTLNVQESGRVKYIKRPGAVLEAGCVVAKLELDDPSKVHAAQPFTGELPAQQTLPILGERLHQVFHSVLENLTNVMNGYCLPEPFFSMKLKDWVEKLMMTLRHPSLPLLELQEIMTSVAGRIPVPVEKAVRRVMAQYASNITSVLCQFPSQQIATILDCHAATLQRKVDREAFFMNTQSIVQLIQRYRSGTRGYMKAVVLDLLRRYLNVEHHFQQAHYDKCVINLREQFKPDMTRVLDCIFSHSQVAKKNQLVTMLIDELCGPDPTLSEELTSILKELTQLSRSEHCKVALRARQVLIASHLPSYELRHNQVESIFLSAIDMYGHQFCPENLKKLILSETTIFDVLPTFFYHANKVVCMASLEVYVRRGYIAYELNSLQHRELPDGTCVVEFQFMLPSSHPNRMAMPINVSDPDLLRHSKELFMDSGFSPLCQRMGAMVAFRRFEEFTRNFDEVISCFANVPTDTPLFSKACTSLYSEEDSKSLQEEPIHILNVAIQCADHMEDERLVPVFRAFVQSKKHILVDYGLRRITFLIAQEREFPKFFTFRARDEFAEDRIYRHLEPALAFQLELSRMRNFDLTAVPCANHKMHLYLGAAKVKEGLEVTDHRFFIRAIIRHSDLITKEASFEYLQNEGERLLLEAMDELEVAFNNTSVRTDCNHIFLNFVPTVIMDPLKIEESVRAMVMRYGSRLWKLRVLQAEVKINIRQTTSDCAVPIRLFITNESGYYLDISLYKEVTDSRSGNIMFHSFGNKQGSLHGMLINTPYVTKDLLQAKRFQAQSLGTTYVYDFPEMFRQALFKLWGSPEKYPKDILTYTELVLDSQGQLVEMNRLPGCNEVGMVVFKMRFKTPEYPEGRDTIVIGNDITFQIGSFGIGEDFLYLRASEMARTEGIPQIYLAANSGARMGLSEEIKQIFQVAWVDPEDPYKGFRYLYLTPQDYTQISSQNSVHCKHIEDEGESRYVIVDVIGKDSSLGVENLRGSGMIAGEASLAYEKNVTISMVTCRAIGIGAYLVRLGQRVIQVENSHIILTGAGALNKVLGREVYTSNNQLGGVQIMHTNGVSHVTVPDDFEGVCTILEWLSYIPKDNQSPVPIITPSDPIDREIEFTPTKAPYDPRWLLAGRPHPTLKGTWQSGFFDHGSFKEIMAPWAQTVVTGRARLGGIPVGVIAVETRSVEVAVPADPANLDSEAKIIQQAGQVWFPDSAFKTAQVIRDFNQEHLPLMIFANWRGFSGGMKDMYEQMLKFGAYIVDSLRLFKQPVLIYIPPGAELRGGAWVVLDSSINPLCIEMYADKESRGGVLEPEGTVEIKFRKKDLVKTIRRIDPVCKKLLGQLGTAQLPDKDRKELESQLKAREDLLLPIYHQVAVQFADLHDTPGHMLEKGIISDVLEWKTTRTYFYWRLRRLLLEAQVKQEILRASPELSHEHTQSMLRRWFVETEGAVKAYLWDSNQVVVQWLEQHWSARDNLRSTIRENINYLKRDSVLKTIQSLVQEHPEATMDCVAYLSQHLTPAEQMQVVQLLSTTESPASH
human ACC2, sequence (O00763 whole entry): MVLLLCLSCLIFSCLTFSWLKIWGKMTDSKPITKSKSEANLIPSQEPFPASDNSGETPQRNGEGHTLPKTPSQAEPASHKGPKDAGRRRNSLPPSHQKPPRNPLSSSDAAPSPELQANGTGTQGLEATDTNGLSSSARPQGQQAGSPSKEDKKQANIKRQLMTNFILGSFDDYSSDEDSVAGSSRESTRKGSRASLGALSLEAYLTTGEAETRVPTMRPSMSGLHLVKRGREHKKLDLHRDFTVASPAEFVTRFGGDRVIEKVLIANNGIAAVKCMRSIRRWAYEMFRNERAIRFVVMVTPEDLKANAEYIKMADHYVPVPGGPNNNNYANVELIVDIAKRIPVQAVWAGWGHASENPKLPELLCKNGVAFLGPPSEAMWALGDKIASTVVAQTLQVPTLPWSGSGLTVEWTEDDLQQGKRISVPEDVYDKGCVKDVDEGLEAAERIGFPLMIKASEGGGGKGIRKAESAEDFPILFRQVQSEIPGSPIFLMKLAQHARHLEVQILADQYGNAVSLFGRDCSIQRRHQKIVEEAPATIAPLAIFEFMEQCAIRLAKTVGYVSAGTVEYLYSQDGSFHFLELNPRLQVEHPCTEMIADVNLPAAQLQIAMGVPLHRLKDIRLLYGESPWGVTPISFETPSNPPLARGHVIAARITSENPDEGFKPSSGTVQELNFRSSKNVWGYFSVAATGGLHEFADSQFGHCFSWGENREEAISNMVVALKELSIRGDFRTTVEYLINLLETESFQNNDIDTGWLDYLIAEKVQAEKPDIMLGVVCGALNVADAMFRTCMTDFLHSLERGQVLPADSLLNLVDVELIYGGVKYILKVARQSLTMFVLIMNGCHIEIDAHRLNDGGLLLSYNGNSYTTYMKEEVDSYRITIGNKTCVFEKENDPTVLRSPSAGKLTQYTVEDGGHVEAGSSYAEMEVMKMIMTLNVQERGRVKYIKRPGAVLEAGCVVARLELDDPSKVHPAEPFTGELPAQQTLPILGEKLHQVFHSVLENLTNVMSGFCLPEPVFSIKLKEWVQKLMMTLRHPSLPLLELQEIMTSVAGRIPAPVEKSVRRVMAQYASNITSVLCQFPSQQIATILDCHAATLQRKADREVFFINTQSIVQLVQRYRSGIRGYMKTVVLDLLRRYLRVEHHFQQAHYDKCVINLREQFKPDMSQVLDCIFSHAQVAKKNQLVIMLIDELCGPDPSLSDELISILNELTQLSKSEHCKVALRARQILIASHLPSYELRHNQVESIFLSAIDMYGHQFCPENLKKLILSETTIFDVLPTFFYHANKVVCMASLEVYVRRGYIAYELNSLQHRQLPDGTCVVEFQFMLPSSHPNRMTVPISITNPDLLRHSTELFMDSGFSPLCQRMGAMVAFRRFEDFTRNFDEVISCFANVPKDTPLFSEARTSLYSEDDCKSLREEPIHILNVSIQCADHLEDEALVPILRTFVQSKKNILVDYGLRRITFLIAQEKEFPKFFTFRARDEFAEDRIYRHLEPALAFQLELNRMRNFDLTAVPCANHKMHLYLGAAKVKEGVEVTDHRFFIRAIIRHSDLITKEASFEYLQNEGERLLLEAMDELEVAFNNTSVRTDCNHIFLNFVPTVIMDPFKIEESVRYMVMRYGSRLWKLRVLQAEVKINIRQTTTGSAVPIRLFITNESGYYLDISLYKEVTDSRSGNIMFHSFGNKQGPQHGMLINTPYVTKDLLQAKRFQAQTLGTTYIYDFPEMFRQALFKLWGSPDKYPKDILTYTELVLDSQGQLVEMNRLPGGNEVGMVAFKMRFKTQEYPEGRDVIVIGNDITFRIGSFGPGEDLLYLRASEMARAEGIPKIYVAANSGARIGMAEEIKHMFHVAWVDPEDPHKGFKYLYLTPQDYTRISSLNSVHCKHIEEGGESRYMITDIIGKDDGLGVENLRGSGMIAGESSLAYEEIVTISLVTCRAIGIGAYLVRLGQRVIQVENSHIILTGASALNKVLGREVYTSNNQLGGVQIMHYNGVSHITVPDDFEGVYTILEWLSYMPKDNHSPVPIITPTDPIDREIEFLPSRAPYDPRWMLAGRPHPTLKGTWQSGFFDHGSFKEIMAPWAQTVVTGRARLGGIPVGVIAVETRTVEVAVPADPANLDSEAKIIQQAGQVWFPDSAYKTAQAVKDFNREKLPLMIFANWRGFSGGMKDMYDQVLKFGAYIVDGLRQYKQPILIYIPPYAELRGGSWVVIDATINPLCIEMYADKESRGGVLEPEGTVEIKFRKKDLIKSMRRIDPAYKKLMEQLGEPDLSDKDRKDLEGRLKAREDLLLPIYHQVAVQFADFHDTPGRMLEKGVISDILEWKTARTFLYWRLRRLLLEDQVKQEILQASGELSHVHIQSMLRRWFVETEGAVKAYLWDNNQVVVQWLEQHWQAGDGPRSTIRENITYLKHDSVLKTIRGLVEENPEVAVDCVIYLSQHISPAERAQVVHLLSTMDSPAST

In the case of O=C(O[C@@H]1Cc2c(O)cc(O)cc2O[C@@H]1c1cc(O)c(O)c(O)c1)c1cc(O)c(O)c(O)c1 [EGCG, (-)-Epicgallocathechin gallate, reference compound], the “Virucidal effect, remaining WNV infectivity” value (WNV [1]) is reported as “virucidal effect”.

In the case of Cc1nc2ccc(C(=O)N3CCC4(CC3)CC(=O)c3c(cnn3C(C)C)C4)cc2[nH]1 [PF-05175157], the “WNV yield, drug added only 1 h before virus inoculation (pre-infection)” value (“WNV yield … (pre-infection)” below) (WNV [2]) is reported as “did not affect WNV infection”, the “WNV yield, drug maintained after virus inoculation (post-infection)” value (WNV [2]) is reported as “reduced viral production” and the IC50 (rat ACC1) is reported as 0.024 ± 0.001 µM. It also gave a CC50 at 24 h [3] of 590 ± 37 µM, a CC50 at 48 h [3] of 236 ± 11 µM and a Cmax ([4]; 15 mg/kg, single p.o. dose 15 mg/kg) of 903 ± 495 ng/mL. It also gave an AUC ([4]; single p.o. dose 15 mg/kg) of 2170 ± 384 ng·h/mL, a Tmax ([4]; single p.o. dose 15 mg/kg) of 100 ± 121 min and an EC50 (DENV) of 1 ± 0.3 µM. For the same compound, the IC50 (human ACC1; radiometric assay, geometric mean ± SEM, n = 3, read-out: IC50 human ACC1) was 0.027 ± 0.003 µM, the EC50 (ZIKV) was < 1.2 µM and the Papp [5] was 7 ×10⁻⁶ cm/s. For the same compound, the EC50 (WNV [6]) was 2.7 ± 1.3 µM, the “Viral load in plasma (serum) vs vehicle” value (WNV [7]; WNV 1 × 10^4 PFU i.p., 3 and 4 days after infection) was “significant reduction of viral load in plasma” and the “Viral RNA in the kidney vs vehicle” value (WNV [7]; [8]) was “significant reduction in the amount of viral RNA in the kidney”. The “Viral RNA in the lung vs vehicle” value (WNV [7]; [8]) was “tendency for a reduction in the amount of viral RNA in the lung”, the “Virucidal effect, remaining WNV infectivity” value (WNV [1]) was “Lack of virucidal effect” and the IC50 (human ACC2; radiometric assay, geometric mean ± SEM, n = 3, read-out: IC50 human ACC2) was 0.033 ± 0.004 µM. For the same compound, the IC50 (rat ACC2) was 0.05 ± 0.003 µM.

For COc1ccc2ncc(C(=O)N3CCC4(CC3)CC(=O)c3c(cnn3C(C)C)C4)cc2c1 [PF-06256254], the “WNV yield … (pre-infection)” value (WNV [2]) was “reduced the infection”, the IC50 (rat ACC1) was 0.011 µM and the CC50 at 24 h [3] was 718 ± 314 µM. For the same compound, the CC50 at 48 h [3] was 202 ± 22 µM, the “Cmax, maximum plasma-concentration” value [4, 9] was 1070 ± 452 ng/mL and the Cmax [4, 10] was 760 to 1070 ng/mL. It also gave an AUC ([4]; single p.o. dose 100 mg/kg) of 2900 ± 1070 ng·h/mL, a Tmax ([4]; single p.o. dose 100 mg/kg) of 33 ± 25.8 min and an EC50 (DENV) of 1.5 ± 0.4 µM. The “SI (CC50/EC50) DENV” value (DENV) was 135, the IC50 (human ACC1) was 0.01 ± 0.002 µM and the EC50 (ZIKV) was < 1.2 µM. For the same compound, the “SI (CC50/EC50) ZIKV” value (ZIKV) was >598, the Papp [5] was 24 ×10⁻⁶ cm/s and the EC50 (WNV [6]) was < 1.2 µM. For the same compound, the “SI (CC50/EC50) WNV” value (WNV [6]) was >598, the “Virucidal effect, remaining WNV infectivity” value (WNV [1]) was “Lack of virucidal effect” and the IC50 (human ACC2) was 0.01 ± 0.002 µM. It also gave an IC50 (rat ACC2) of 0.015 µM.

For CC(C)n1ncc2c1C(=O)CC1(CCN(C(=O)c3cc4ncccc4[nH]3)CC1)C2 [PF-05206574], the “WNV yield … (pre-infection)” value (WNV [2]) was “reduced the infection”, the IC50 (rat ACC1) was 0.014 ± 0.003 µM and the CC50 at 24 h [3] was > 1280 µM. The CC50 at 48 h [3] was 415 ± 67 µM, the “Cmax, maximum plasma-concentration” value [4, 9] was 760 ± 240 ng/mL and the Cmax [4, 10] was 760 to 1070 ng/mL. The AUC ([4]; single p.o. dose 100 mg/kg) was 3700 ± 1440 ng·h/mL, the Tmax ([4]; single p.o. dose 100 mg/kg) was 23 ± 12 min and the EC50 (DENV) was < 1.3 µM. For the same compound, the “SI (CC50/EC50) DENV” value (DENV) was >319, the IC50 (human ACC1) was 0.019 ± 0.004 µM and the EC50 (ZIKV) was < 1.3 µM. For the same compound, the “SI (CC50/EC50) ZIKV” value (ZIKV) was >982, the Papp [5] was 19 ×10⁻⁶ cm/s and the EC50 (WNV [6]) was 1.9 ± 0.9 µM. For the same compound, the “SI (CC50/EC50) WNV” value (WNV [6]) was >672, the “Virucidal effect, remaining WNV infectivity” value (WNV [1]) was “Lack of virucidal effect” and the IC50 (human ACC2) was 0.022 ± 0.009 µM. It also gave an IC50 (rat ACC2) of 0.018 ± 0.004 µM.

— paper PMC6493301, “Targeting host metabolism by inhibition of acetyl-Coenzyme A carboxylase reduces flavivirus infection in mouse models” (Emerging Microbes & Infections, 2019)
